Experimental data reported in the OPERA property sets (Mansouri et al. 2018).

Conditions: not given

Compound	boiling point [°C]	melting point [°C]	ready biodegradability	log10 Henry constant (atm·m³/mol)	log10 Koa	log10 Koc (L/kg)	log10 vapour pressure (mmHg)	log10 biodegradation half-life (days)
CC(=O)Nc1ccc(Cl)cc1	333	179	–	–	–	–	–	–
CCCCCS(=O)CCCCC	–	58	–	–	–	–	–	–
O=[N+]([O-])c1ccc(C2CCCCC2)cc1	–	58.5	–	–	–	–	–	–
C[Si](C)(CCl)c1ccccc1	225	–	–	–	–	–	–	–
C=Cc1ccccc1C=C	–	–	not readily biodegradable	–	–	–	–	–
Cc1ccc(NO)cc1	–	96	–	–	–	–	–	–
CC(Br)CCl (stereo unspecified)	118	–	–	–	–	–	–	–
Clc1cc(Cl)c(Cl)c(Cl)c1	–	54.5	–	-2.8	5.55	3.2	-1.26	–
COc1ccc(-c2coc3cc(O)ccc3c2=O)cc1	–	256	–	–	–	–	–	–
CCCCCCCCCCCCI	298	0.3	–	–	–	–	-1.85	–
CC(C)(C)c1cc([N+](=O)[O-])c(O)c([N+](=O)[O-])c1	–	95	–	–	–	–	–	–
CCCCCCCCCCCCCCCCCC(=O)OC(=O)CCCCCCCCCCCCCCCCC	–	72	–	–	–	–	–	–
CC(Br)CBr (stereo unspecified)	142	-55.5	–	–	–	–	0.894	–
O=C=S	-50	-139	–	–	–	–	3.97	–
O=S1(=O)CC=CC1	–	64.5	–	–	–	–	–	–
Nc1ccc2c(c1)Cc1ccccc1-2	–	129	–	–	–	–	–	–
CCNC(=O)OCC	176	–	–	–	–	–	–	–
COc1c(Cl)c(Cl)c([N+](=O)[O-])c(Cl)c1Cl	–	103	–	–	–	–	–	–
COc1ccc2cc1Oc1ccc(cc1)C[C@H]1c3cc(c(OC)cc3CCN1C)Oc1c(OC)c(OC)cc3c1[C@H](C2)N(C)CC3	–	218	–	–	–	–	–	–
Cn1c2ccccc2c2ccccc21	–	89.3	–	–	–	–	–	–
CC(C)(C)C	9.5	-16.4	–	–	–	–	3.11	–
CCN1C(=O)NC(c2ccccc2)C1=O (stereo unspecified)	–	94	–	–	–	–	–	–
N#CCCCCCCC#N	–	-3.5	–	–	–	–	–	–
O[Si](c1ccccc1)(c1ccccc1)c1ccccc1	–	155	–	–	–	–	–	–
O=[N+]([O-])c1cc(Cl)c(Cl)c(Cl)c1Cl	–	–	–	–	–	4.23	–	–
C[C@@H](O)CC(=O)O	–	47.5	–	–	–	–	–	–

Compound	boiling point [°C]	melting point [°C]	ready biodegradability	log10 Henry constant (atm·m³/mol)	log10 Koa	log10 Koc (L/kg)	log10 vapour pressure (mmHg)	log10 biodegradation half-life (days)
C/C=C/c1cc2c(c(=O)o1)C(=O)[C@@H](O)[C@H](C)O2	–	222	–	–	–	–	–	–
CCOc1ccc(NC(C)=O)cc1	244	138	not readily biodegradable	–	9.59	–	-6.16	–
Ic1cccc(I)c1	285	40.4	–	–	–	–	–	–
CCCCCCCCCCCCCCCCCC(=O)OCC	–	33	–	–	–	–	-5.59	–
CCC(CC)CC(C)(C)C	147	–	–	–	–	–	–	–
CCc1ccccc1-c1ccccc1	266	-6	–	–	–	–	–	–
CCOCCO	135	-70	readily biodegradable	-6.33	–	–	0.725	–
CCCOCOCCC	140	-97.3	–	–	–	–	–	–
OCC(Cl)Cl	146	–	–	–	–	–	–	–
Cc1cccc2c1CCC2	205	–	–	–	–	–	–	0.301
CCC(CC)=NO	168	–	–	–	–	–	–	–
COC(=O)CCCl	156	–	–	–	–	–	–	–
CCC(C(N)=O)n1nnc2ccccc21 (stereo unspecified)	–	143	–	–	–	–	–	–
BrC1CCC(Br)C(Br)CCC(Br)C(Br)CCC1Br (stereo unspecified)	–	–	not readily biodegradable	–	–	–	-6.33	–
O=C(C=Cc1ccccc1)OCC=Cc1ccccc1	–	44	–	–	–	–	–	–
C/C(=C\c1ccccc1)C(=O)O	–	80	–	–	–	–	-3.04	–
CCCCCCCCCCCCCCCCCCCCCCCC(=O)O	–	84.2	–	–	–	–	–	–
CC(=O)c1ccco1	175	33	–	–	–	–	–	–
O=S(=O)(Cl)c1ccc(F)cc1	–	30	–	–	–	–	–	–
O=NN1CCCC1	214	–	–	–	–	–	-1.22	–
NC(=O)Nc1ccccc1Cl	–	–	–	–	–	1.61	–	–
CCCCNc1cc(C(=O)O)cc(S(N)(=O)=O)c1Oc1ccccc1	–	230	–	–	–	–	–	–
CCOc1ccc2nc(S(N)(=O)=O)sc2c1	–	189	–	–	–	–	–	–
Cc1cc(Cl)cc([N+](=O)[O-])c1	–	61	–	–	–	–	–	–
CCCCCCCCCCCCCCCC(=O)OCC	–	24	–	–	–	–	-4.63	–
O=C1c2ccccc2C(=O)N1CCCBr	–	75	–	–	–	–	–	–

Compound	boiling point [°C]	melting point [°C]	ready biodegradability	log10 Henry constant (atm·m³/mol)	log10 Koa	log10 Koc (L/kg)	log10 vapour pressure (mmHg)	log10 biodegradation half-life (days)
CO[C@H]1[C@H](O)[C@H](O[C@H]2CC[C@@]3(C=O)[C@H](CC[C@@H]4[C@@H]3CC[C@]3(C)[C@@H](C5=CC(=O)OC5)CC[C@]43O)C2)O[C@@H](C)[C@@H]1O	–	162	–	–	–	–	–	–
COC(=O)CCC(C)=O	196	–	–	–	–	–	–	–
CCOc1ccccc1C=O	248	21	–	–	–	–	–	–
COC1=CC(=O)C=C(OC)C1=O	–	256	–	–	–	–	–	–
O=Cc1ccc([N+](=O)[O-])cc1	–	107	–	–	–	–	–	–
CC1CC(C)CC(C)C1 (mixture of isomers)	141	–	–	–	–	–	–	–
C#CC(C)(C)C	37.7	-78.2	–	–	–	–	–	–
C1COCCN1	128	-4.9	not readily biodegradable	–	–	–	1	–
O=C(Cl)C(c1ccccc1)c1ccccc1	–	56.5	–	–	–	–	–	–
CCCCCCCC/C=C\CCCCCCCC(=O)[O-].[NH4+]	–	71	–	–	–	–	–	–
O=CC1CC=CCC1 (stereo unspecified)	105	2	–	–	–	–	–	–
CCN1C(=O)C=CC1=O	–	45.5	–	–	–	–	–	–
OCCCCCCCCO	–	63	–	–	–	–	–	–
Cl[SiH2]c1ccccc1	162	–	–	–	–	–	–	–
CCCCN(CC)C(=O)SCCC	202	-22	readily biodegradable	–	–	2.8	-1.05	–
N#Cc1cccc(N)c1	289	54.3	–	–	–	–	–	–
CCC(C)(CC)CC(C)C	161	–	–	–	–	–	–	–
CCC/C=C/COC(C)=O	166	–	–	–	–	–	–	–
c1ccc2cc(-c3ccc4ccccc4c3)ccc2c1	452	188	–	–	–	–	–	–
C=CC(OC(C)=O)OC(C)=O	180	-37.6	readily biodegradable	–	–	–	–	–
CC(C)CCOC(=O)c1ccccc1	261	–	–	–	–	–	-0.848	–
O=C(NNc1ccccc1)NNc1ccccc1	–	170	–	–	–	–	–	–
COc1ccc(I)cc1	238	53	–	–	–	–	–	–
CCCCC1CCCC1	157	-108	–	–	–	–	0.602	–
CCCSP(=S)(OCC)Oc1ccc(SC)cc1 (stereo unspecified)	–	-15	–	–	–	4.08	-5.92	–
c1ccc(CC2CCCCN2)cc1 (stereo unspecified)	268	32	–	–	–	–	–	–

Compound	boiling point [°C]	melting point [°C]	ready biodegradability	log10 Henry constant (atm·m³/mol)	log10 Koa	log10 Koc (L/kg)	log10 vapour pressure (mmHg)	log10 biodegradation half-life (days)
CC(C)Nc1ccc(Nc2ccccc2)cc1	–	74	not readily biodegradable	–	–	–	–	–
CCN(CCO)c1ccccc1	268	37	–	–	–	–	–	–
CCCCC(CC)COC(=O)CC(C(=O)OCC(CC)CCCC)S(=O)(=O)[O-].[Na+] (stereo unspecified)	–	176	–	–	–	–	–	–
Nc1ccc(Cc2ccc(N)cc2)cc1	398	92.5	not readily biodegradable	–	–	1.99	–	–
S=C=NCc1ccccc1	243	–	–	–	–	–	-1.81	–
Cc1ccc2cccnc2c1	258	39	–	–	–	–	-2.05	–
CCCCCCC(=O)OC	174	-56	–	–	–	–	–	–
CCCCOC(N)=O	–	53	–	–	–	–	–	–
Cc1cc(C)c([N+](=O)[O-])c(C)c1[N+](=O)[O-]	418	85.3	–	–	–	–	–	–
CC(C)(C)Br	73.3	-16.2	–	–	–	–	2.13	–
CCCCCCCCCCCCCC(=O)CC	–	43	–	–	–	–	–	–
O=C1CCCCCN1	270	69.3	readily biodegradable	–	–	–	-2.8	–
CCc1ccccc1[N+](=O)[O-]	232	-12.3	not readily biodegradable	–	–	–	–	–
CCNC(=O)Nc1ncc([N+](=O)[O-])s1	–	228	–	–	–	–	–	–
Cc1ccccc1C(C)C	178	-71.5	not readily biodegradable	–	–	–	0.176	–
C=C(CCC)CCC	118	–	–	–	–	–	–	–
C=C(C=O)CC	92.5	–	–	–	–	–	–	–
C=CCOC(=O)OCC=C	142	–	–	–	–	–	-0.991	–
O=[N+]([O-])N1CCCCC1	245	-5.5	–	–	–	–	–	–
CC=CCC(C)=O	127	–	–	–	–	–	–	–
Clc1ccc(Cl)c(-c2ccccc2Cl)c1	–	–	–	-3.6	7.6	4.4	-2.98	–
CC1=C(/C=C/C(C)=C/C=C/C(C)=C/C=O)C(C)(C)CC=C1	–	77.5	–	–	–	–	–	–
Cc1ccc2ccc3ccc(C)nc3c2n1	–	160	–	–	–	–	–	–
COc1ccc(C(=O)c2ccccc2C(=O)O)cc1	–	146	–	–	–	–	–	–
Cc1cc(Cl)c(Cl)cc1Cl	231	82.4	–	-2.82	–	–	–	–
Oc1ccc2c(O)cccc2c1	–	138	–	–	–	–	–	–

Compound	boiling point [°C]	melting point [°C]	ready biodegradability	log10 Henry constant (atm·m³/mol)	log10 Koa	log10 Koc (L/kg)	log10 vapour pressure (mmHg)	log10 biodegradation half-life (days)
C=Cc1ccc(N)cc1	–	23.5	–	–	–	–	–	–
O=[N+]([O-])CCl	122	–	–	–	–	–	–	–
CCCCCCCC/C=C\CCCCCCCCOC(=O)CCCCC(=O)OCCCCCCCC/C=C\CCCCCCCC	–	–	readily biodegradable	–	–	–	–	–
CN1CC[C@]23c4c5ccc(O)c4O[C@H]2C(=O)CC[C@@]3(O)[C@H]1C5	–	248	–	–	–	–	–	–
[O-][n+]1cccc(O)c1	–	191	–	–	–	–	–	–
COC(=O)C(Cl)(Cl)Cl	154	-17.5	–	–	–	–	–	–
CCCCOCCOCCOC(C)=O	245	-32	readily biodegradable	–	–	–	-1.4	–
Clc1cccc2ncccc12	256	45	–	–	–	–	–	–
CCCC(C)C(C)=O (stereo unspecified)	144	–	–	–	–	–	–	–
COC(=O)c1cccc(C)c1O	235	29	–	–	–	–	–	–
CCCC(C(N)=O)n1nc2ccccc2n1 (stereo unspecified)	–	126	–	–	–	–	–	–
OCCn1ccnc1	–	39	–	–	–	–	–	–
CC(C)=O	55.8	-96.5	readily biodegradable	-4.46	2.31	–	2.36	–
CCCC(C(N)=O)n1nnc2ccccc21 (stereo unspecified)	–	125	–	–	–	–	–	–
CCC(C)(CC)C(C)C	145	–	–	–	–	–	–	–
O=CNC(N1CCN(C(NC=O)C(Cl)(Cl)Cl)CC1)C(Cl)(Cl)Cl (stereo unspecified)	–	–	–	–	–	2.3	-6.7	–
O=C1CC(=O)NC(=S)N1	–	–	–	–	–	–	-7.7	–
C=C(C)CCC(C)C	112	–	–	–	–	–	–	–
c1ccc(CSSCc2ccccc2)cc1	–	71.5	–	–	–	–	–	–
Clc1cccc(-c2c(Cl)cc(Cl)cc2Cl)c1	–	–	–	-3.68	–	–	–	–
Oc1ccc(Cl)c(Cl)c1Cl	–	83.5	–	–	–	–	–	–
NCc1ccncc1	230	-7.6	–	–	–	–	–	–
S=C(SSC(=S)N1CCCCC1)N1CCCCC1	–	138	–	–	–	–	–	–
CCSc1ccccc1	205	–	–	–	–	–	–	–
COc1ccc2c3c([nH]c2c1)[C@H]1C[C@H]2[C@H](C[C@@H](O)[C@H](OC)[C@H]2C(=O)O)CN1CC3	–	242	–	–	–	–	–	–
Cc1ccc(C(=O)c2ccccc2C(=O)O)cc1	–	146	–	–	–	–	–	–

Same assay, conditions: fish

Compound	log10 BCF	log10 biotransformation half-life (days)
Clc1cc(Cl)c(Cl)c(Cl)c1	3.59	–
O[Si](c1ccccc1)(c1ccccc1)c1ccccc1	–	0.07
O=[N+]([O-])c1cc(Cl)c(Cl)c(Cl)c1Cl	1.9	-0.69
CCOc1ccc(NC(C)=O)cc1	1.48	-0.55
C1COCCN1	0.45	–
Nc1ccc(Cc2ccc(N)cc2)cc1	1.18	–
CCc1ccccc1[N+](=O)[O-]	1.11	-0.56
Clc1ccc(Cl)c(-c2ccccc2Cl)c1	4.23	1.87
Cc1cc(Cl)c(Cl)cc1Cl	3.87	2.01
